Test results as given in US20140024687A1, “Combinations of Vascular Disrupting Agents with Inhibitor of Apoptosis Proteins Antagonists” (priority 2009, published 2014).

Legend:
[1] = system: MDA-MB-231 human breast cancer orthotopic xenograft; experiment: Single agent anti-tumor activity, MDA-MB-231 human breast cancer orthotopic xenograft (Example 1); format: in vivo, athymic nude mice; conditions: day 71 post implantation; Compound B 150 mg/kg po qw days 50, 57, 64; Compound A 20 mg/kg iv days 50, 54, 58; p<0.05 compared to vehicle controls
Experimental: Treatment started on day 50 following orthotopic implantation of 7.5×10^6 MDA-MB-231 human breast cancer cells into the mammary fat pad. Starting tumor volume averaged 160 mm^3 (range=76 to 286); n=8/group. […] The vehicle for […] is 10% Tris-HCl buffer and 90% 1×PBS, Statistical analysis performed on delta tumor volumes on day 71 post implantation using a One-way ANOVA followed by a post hoc Tukey test.

mouse TNF = experiment: Mouse TNF in MDA-MB-231 breast xenograft tissue after treatment; format: in vivo; conditions: tumors collected 6 hrs after final dose; n=4, no statistical analysis
Excerpt: (§1) Due to the small sample size (n=4), statistical analysis was not performed.

[2] = system: HS944.t human melanoma xenograft; conditions: B 100 mg/kg po qw; A 15 mg/kg iv; combination; days 14 and 21
Experimental: Treatment started on day 14 following subcutaneous implantation of 5.0×10^6 Hs944.t human melanoma cancer cells in 50% basement membrane matrix. Starting tumor volume averaged 245 mm^3 (range=146 to 321); n=8/group. In this study, (s)—N—((S)-1-cyclohexyl-2-{(S)-2-[4-(4-fluoro-benzoyl)-thiazol-2-yl]-pyrrolidin-1-yl}-2-oxo-ethyl)-2-methylamino-propionamide was administered orally (po) at 100 mg/kg, qw, 5,6-dimethylxanthenone-4-acetic acid was administered intravenously (iv) at 15 mg/kg, or (S)—N—((S)-1-cyclohexyl-2-{(S)-2-[4-(4-fluoro-benzoyl)-thiazol-2-yl]-pyrrolidin-1-yl}-2-oxo-ethyl)-2-methylamino-propionamide and 5,6-dimethylxanthenone-4-acetic acid were administered in combination on days 14 and 21 post implantation, Vehicle control for (S)—N—((S)-1-cyclohexyl-2-{(S)-2-[4-(4-fluoro-benzoyl)-thiazol-2-yl]-pyrrolidin-1-yl}-2-oxo-ethyl)-2-methylamino-propionamide is 30% 0.1N HCl and 70% 100 mM sodium acetate buffer, pH 4.63, Vehicle control for 5,6-dimethylxanthenone-4-acetic acid is 10% 1× Tris-HCl and 90% 1×PBS, Statistical analysis performed on tumor volumes from day 14-27 post implantation using a repeated measures MANOVA test.

TNF mRNA = conditions: Colon 38 tumor bearing mice (Joseph WR, 1999); cited from earlier work
human TNF = experiment: Human TNF in MDA-MB-231 tumor lysates after treatment; format: in vivo; conditions: tumors collected 6 hrs after final dose; n=4, no statistical analysis
Excerpt: as §1

SMILES	single agent anti-tumor activity (delta tumor volumes vs vehicle controls) [1]	mouse TNF in xenograft tissue (mouse TNF)	surviving animals at study termination [2]	TNF mRNA in tumor, spleen, and liver (TNF mRNA)	human TNF in MDA-MB-231 tumor lysates (human TNF)
Cc1ccc2c(=O)c3cccc(CC(=O)O)c3oc2c1C [Compound A, 5,6-dimethylxanthenone-4-acetic acid]	demonstrated single agent anti-tumor activity	increase in mouse TNF	7/8	increase TNF mRNA	–
CN[C@@H](C)C(=O)N[C@H](C(=O)N1CCC[C@H]1c1nc(C(=O)c2ccc(F)cc2)cs1)C1CCCCC1 [Compound B, (S)—N—((S)-1-Cyclohexyl-2-{(S)-2-[4-(4-fluoro-benzoyl)-thiazol-2-yl]-pyrrolidin-1-yl}-2-oxo-ethyl)-2-methylamino-propionamide]	demonstrated single agent anti-tumor activity	–	–	–	increase in human TNF
